From article PMC6901910, “Molecular Basis of C-30 Product Regioselectivity of Legume Oxidases Involved in High-Value Triterpenoid Biosynthesis” (Frontiers in Plant Science, 2019)

Legend:
Assay in all cases: in vivo yeast assay, GC-MS of products
[1] = target: T1, CYP72A559 (Medicago truncatula, UniProt A0A5P8TXY6); type: cell-based; conditions: beta-amyrin formed in the cell by co-expressed OSC1; L. japonicus CPR; 30°C, 4 days
T1 construct: full length, expressed in S. cerevisiae INVSc1 with Lotus japonicus CPR and beta-amyrin synthase OSC1
T1 sequence (A0A5P8TXY6 1-518): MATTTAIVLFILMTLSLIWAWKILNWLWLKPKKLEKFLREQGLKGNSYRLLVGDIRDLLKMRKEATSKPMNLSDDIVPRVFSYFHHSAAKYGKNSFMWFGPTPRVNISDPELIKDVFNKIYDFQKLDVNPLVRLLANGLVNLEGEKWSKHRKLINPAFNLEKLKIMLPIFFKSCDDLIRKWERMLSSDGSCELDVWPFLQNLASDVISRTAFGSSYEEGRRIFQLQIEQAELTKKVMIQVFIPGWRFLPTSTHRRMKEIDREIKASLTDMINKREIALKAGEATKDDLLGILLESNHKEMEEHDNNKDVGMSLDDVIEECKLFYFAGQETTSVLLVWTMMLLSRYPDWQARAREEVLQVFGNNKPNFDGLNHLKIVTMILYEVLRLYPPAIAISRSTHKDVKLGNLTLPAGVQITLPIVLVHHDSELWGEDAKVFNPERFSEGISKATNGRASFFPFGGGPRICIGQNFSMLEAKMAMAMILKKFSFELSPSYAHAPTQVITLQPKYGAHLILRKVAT

[2] = target: T2, TpCYP72A699 (Trifolium pratense, UniProt A0A5P8TXT7); type: cell-based; conditions: beta-amyrin formed in the cell by co-expressed OSC1; L. japonicus CPR; 30°C, 4 days
T2 construct: gene CYP72A699; full length, expressed in S. cerevisiae INVSc1 with Lotus japonicus CPR and beta-amyrin synthase OSC1
T2 sequence (A0A5P8TXT7 entry or part of it): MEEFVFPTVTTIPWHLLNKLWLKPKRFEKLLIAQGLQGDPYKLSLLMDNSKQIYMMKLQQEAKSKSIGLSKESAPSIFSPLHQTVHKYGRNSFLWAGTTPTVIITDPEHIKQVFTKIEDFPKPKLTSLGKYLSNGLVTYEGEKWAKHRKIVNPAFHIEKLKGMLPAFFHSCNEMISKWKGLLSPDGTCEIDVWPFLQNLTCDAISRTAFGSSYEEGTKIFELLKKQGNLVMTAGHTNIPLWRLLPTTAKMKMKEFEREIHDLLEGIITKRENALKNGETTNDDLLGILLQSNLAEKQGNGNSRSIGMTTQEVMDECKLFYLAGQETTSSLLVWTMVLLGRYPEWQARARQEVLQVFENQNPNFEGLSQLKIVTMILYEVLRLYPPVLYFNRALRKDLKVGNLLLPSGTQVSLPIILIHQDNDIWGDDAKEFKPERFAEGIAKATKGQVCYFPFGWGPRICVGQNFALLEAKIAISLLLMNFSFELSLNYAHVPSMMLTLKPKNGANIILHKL

[3] = target: T3, CYP72A560 (Medicago truncatula, UniProt A0A5P8TXP5); type: cell-based; conditions: beta-amyrin formed in the cell by co-expressed OSC1; L. japonicus CPR; 30°C, 4 days
T3 construct: full length, expressed in S. cerevisiae INVSc1 with Lotus japonicus CPR and beta-amyrin synthase OSC1
T3 sequence (A0A5P8TXP5 1-518): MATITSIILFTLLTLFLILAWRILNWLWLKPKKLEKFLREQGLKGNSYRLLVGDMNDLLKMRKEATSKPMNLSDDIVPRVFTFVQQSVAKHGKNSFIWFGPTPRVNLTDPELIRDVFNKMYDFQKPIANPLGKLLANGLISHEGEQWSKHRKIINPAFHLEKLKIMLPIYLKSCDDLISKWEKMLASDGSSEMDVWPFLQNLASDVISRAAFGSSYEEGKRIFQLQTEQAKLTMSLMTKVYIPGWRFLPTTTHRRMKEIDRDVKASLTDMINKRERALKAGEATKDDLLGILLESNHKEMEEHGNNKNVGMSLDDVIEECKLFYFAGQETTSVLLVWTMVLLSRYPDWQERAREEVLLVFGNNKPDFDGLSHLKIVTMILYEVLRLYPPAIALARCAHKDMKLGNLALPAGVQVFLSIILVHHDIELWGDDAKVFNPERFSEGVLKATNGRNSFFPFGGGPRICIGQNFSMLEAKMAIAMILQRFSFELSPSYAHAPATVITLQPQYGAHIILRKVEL

[4] = target: T4, LjCYP72A697 (Lotus japonicus, UniProt A0A5P8TXS9); type: cell-based; conditions: beta-amyrin formed in the cell by co-expressed OSC1; L. japonicus CPR; 30°C, 4 days
T4 construct: gene CYP72A697; full length, expressed in S. cerevisiae INVSc1 with Lotus japonicus CPR and beta-amyrin synthase OSC1
T4 sequence (A0A5P8TXS9 entry or part of it): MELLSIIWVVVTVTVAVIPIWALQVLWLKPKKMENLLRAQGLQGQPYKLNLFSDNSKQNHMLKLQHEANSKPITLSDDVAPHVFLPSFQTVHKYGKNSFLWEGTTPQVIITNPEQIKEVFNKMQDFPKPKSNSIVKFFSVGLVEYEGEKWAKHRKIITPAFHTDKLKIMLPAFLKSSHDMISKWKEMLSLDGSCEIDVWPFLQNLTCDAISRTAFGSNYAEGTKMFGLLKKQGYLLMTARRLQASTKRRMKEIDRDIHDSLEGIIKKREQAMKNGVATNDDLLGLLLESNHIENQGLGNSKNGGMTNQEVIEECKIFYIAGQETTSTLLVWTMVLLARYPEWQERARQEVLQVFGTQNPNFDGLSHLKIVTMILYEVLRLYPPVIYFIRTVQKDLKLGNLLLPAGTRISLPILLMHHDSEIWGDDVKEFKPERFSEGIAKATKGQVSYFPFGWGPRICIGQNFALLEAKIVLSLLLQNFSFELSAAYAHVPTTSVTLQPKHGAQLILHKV

[5] = target: T5, CYP72A63 (Medicago truncatula, UniProt H1A981); type: cell-based; conditions: beta-amyrin formed in the cell by co-expressed OSC1; L. japonicus CPR; 30°C, 4 days
T5 construct: full length, expressed in S. cerevisiae INVSc1 with Lotus japonicus CPR and beta-amyrin synthase OSC1
T5 sequence (H1A981 1-524): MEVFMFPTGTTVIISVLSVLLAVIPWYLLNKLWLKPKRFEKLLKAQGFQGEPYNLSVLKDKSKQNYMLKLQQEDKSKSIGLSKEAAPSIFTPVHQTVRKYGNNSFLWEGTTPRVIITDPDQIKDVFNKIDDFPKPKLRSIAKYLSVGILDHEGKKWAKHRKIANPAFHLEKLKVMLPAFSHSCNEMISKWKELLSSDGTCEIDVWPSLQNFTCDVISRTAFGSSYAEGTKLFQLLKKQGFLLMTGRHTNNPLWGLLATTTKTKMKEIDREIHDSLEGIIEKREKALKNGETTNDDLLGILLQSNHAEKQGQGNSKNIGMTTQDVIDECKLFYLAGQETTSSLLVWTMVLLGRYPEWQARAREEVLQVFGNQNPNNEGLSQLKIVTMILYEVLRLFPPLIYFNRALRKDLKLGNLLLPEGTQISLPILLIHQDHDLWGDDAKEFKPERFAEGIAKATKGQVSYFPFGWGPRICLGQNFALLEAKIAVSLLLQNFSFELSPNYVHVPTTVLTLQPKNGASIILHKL

[6] = target: T6, GuCYP72A154 (Glycyrrhiza uralensis, UniProt H1A988); type: cell-based; conditions: beta-amyrin formed in the cell by co-expressed OSC1; L. japonicus CPR; 30°C, 4 days
T6 construct: gene CYP72A154; full length, expressed in S. cerevisiae INVSc1 with Lotus japonicus CPR and beta-amyrin synthase OSC1
T6 sequence (H1A988 whole entry): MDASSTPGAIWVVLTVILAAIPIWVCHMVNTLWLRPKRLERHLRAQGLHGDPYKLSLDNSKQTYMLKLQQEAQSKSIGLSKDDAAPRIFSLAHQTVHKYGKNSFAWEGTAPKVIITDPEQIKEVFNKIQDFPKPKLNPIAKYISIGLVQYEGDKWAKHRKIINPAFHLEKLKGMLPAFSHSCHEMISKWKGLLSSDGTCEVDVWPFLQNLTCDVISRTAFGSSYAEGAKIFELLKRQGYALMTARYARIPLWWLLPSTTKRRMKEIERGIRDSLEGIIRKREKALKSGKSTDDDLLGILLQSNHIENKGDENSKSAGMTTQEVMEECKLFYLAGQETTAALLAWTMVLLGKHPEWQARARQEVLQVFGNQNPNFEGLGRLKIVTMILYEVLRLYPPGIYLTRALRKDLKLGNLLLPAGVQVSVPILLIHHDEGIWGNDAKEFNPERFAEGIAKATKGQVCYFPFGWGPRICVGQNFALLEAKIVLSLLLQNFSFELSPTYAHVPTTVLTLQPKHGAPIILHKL

[7] = target: T7, VaCYP72A694 (Vigna angularis, UniProt A0A5P8TXJ3); type: cell-based; conditions: beta-amyrin formed in the cell by co-expressed OSC1; L. japonicus CPR; 30°C, 4 days
T7 construct: gene CYP72A694; full length, expressed in S. cerevisiae INVSc1 with Lotus japonicus CPR and beta-amyrin synthase OSC1
T7 sequence (A0A5P8TXJ3 entry or part of it): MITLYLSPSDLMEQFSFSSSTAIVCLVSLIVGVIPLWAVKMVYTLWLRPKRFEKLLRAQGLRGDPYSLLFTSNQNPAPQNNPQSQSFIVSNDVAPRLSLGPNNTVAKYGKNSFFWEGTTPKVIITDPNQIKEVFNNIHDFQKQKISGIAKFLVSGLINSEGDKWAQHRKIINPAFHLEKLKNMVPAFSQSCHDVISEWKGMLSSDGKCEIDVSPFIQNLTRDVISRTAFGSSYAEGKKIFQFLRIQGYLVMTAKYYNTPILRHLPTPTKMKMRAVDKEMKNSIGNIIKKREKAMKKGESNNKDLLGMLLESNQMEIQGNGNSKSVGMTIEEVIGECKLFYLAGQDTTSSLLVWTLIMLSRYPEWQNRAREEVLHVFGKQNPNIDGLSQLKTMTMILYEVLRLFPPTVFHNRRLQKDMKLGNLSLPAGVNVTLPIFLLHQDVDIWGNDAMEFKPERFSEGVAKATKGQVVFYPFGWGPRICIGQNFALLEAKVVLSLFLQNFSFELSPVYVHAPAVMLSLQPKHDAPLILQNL

[8] = target: T8, Gmax CYP72A141 (Glycine max, UniProt A0A5P8TY68); type: cell-based; conditions: beta-amyrin formed in the cell by co-expressed OSC1; L. japonicus CPR; 30°C, 4 days
T8 construct: full length, expressed in S. cerevisiae INVSc1 with Lotus japonicus CPR and beta-amyrin synthase OSC1
T8 sequence (A0A5P8TY68 1-520): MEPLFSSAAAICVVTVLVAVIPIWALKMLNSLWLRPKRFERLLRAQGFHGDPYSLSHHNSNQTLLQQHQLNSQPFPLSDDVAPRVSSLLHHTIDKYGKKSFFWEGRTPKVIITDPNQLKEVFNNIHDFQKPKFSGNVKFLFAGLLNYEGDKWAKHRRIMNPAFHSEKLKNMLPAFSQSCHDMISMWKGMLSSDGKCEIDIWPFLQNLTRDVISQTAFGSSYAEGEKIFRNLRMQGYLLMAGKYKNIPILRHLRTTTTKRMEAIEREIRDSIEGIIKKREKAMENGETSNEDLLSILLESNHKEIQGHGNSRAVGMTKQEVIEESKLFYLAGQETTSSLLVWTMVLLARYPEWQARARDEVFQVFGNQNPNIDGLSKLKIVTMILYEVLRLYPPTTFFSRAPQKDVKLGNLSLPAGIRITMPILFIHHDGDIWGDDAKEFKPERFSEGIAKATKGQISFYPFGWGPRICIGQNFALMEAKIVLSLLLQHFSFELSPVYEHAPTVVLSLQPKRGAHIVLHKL

[9] = target: T9, CYP72A63 (Medicago truncatula, UniProt H1A981, L149V/L398V); type: cell-based; conditions: beta-amyrin formed in the cell by co-expressed OSC1; L. japonicus CPR; 30°C, 4 days
T9 construct: full length, expressed in S. cerevisiae INVSc1 with Lotus japonicus CPR and beta-amyrin synthase OSC1
T9 sequence (H1A981 whole entry L149V/L398V, the tested form may be a part): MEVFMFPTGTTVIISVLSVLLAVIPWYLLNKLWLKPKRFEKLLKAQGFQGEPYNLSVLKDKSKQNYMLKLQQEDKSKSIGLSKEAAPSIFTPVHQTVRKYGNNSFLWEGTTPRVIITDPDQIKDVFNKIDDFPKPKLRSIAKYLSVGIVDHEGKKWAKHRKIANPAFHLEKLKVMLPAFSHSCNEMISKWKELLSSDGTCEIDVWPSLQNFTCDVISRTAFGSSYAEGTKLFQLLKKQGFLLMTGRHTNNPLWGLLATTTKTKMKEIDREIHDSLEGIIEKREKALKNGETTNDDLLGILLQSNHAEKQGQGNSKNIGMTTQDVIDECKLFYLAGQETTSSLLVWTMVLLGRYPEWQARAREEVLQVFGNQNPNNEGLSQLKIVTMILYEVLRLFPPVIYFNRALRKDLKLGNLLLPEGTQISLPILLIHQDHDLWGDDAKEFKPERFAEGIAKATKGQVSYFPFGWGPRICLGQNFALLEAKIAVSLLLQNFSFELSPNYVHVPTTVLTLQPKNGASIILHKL

[10] = target: T10, CYP72A61v2 (Medicago truncatula, UniProt H1A980); type: cell-based; conditions: beta-amyrin formed in the cell by co-expressed OSC1; L. japonicus CPR; 30°C, 4 days
T10 construct: full length, expressed in S. cerevisiae INVSc1 with Lotus japonicus CPR and beta-amyrin synthase OSC1

[11] = target: T11, CYP72A66v2 (Medicago truncatula, UniProt A0A5P8TY60); type: cell-based; conditions: beta-amyrin formed in the cell by co-expressed OSC1; L. japonicus CPR; 30°C, 4 days
T11 construct: full length, expressed in S. cerevisiae INVSc1 with Lotus japonicus CPR and beta-amyrin synthase OSC1

[12] = target: T12, PvCYP72A302 (Phaseolus vulgaris, UniProt A0A5P8TXN3); type: cell-based; conditions: beta-amyrin formed in the cell by co-expressed OSC1; L. japonicus CPR; 30°C, 4 days
T12 construct: gene CYP72A302; full length, expressed in S. cerevisiae INVSc1 with Lotus japonicus CPR and beta-amyrin synthase OSC1
T12 sequence (A0A5P8TXN3 entry or part of it): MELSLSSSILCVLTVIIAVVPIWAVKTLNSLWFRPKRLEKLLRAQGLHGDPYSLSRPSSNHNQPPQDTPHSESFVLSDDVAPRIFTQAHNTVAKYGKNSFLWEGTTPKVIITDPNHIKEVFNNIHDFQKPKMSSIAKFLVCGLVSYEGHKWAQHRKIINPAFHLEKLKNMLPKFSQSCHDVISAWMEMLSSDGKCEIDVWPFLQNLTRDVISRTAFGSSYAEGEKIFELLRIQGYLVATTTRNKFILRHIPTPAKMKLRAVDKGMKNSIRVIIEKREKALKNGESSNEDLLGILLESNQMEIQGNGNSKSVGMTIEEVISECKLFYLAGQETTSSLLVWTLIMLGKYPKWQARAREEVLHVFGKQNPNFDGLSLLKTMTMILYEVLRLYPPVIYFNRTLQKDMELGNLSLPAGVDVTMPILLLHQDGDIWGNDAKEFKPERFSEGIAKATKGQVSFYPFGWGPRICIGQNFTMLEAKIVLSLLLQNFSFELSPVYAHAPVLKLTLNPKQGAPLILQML

[13] = target: T13, GpCYP72A154 (Glycyrrhiza pallidiflora, UniProt A0A5P8TXI9); type: cell-based; conditions: beta-amyrin formed in the cell by co-expressed OSC1; L. japonicus CPR; 30°C, 4 days
T13 construct: gene CYP72A154; full length, expressed in S. cerevisiae INVSc1 with Lotus japonicus CPR and beta-amyrin synthase OSC1
T13 sequence (A0A5P8TXI9 1-523): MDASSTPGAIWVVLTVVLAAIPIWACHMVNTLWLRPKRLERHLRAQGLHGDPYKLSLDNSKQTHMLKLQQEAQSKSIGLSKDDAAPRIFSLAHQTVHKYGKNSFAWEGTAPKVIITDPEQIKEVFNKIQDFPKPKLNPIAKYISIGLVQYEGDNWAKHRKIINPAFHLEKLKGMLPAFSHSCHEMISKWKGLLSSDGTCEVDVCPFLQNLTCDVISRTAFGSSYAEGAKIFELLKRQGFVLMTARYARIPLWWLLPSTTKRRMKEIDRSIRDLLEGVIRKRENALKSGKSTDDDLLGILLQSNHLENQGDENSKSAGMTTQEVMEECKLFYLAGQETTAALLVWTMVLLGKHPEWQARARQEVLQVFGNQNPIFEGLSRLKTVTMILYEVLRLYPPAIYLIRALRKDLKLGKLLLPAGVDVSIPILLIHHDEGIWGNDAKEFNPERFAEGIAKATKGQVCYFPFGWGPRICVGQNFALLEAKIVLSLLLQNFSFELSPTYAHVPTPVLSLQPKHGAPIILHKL

[14] = target: T14, GgCYP72A154 (Glycyrrhiza glabra, UniProt A0A5P8TXJ1); type: cell-based; conditions: beta-amyrin formed in the cell by co-expressed OSC1; L. japonicus CPR; 30°C, 4 days
T14 construct: gene CYP72A154; full length, expressed in S. cerevisiae INVSc1 with Lotus japonicus CPR and beta-amyrin synthase OSC1
T14 sequence (A0A5P8TXJ1 1-523): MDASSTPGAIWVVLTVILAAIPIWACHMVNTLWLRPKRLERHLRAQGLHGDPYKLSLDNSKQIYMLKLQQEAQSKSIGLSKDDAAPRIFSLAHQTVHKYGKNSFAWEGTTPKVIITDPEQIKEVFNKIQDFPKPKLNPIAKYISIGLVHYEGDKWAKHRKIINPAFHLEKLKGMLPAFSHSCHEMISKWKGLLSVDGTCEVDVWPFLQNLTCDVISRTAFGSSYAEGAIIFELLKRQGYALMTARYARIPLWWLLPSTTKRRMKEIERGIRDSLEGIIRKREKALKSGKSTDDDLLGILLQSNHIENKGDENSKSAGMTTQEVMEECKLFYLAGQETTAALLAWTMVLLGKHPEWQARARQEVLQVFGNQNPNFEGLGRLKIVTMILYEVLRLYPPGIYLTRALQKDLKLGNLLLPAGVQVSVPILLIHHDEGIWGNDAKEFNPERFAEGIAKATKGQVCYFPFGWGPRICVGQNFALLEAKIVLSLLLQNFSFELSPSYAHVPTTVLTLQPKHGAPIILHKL

[15] = target: T15, CYP72A62v2 (Medicago truncatula, UniProt H1A982, V149L/V398L); conditions: beta-amyrin formed in the cell by co-expressed OSC1; L. japonicus CPR; 30°C, 4 days; CYP72A63-based numbering
T15 construct: full length, expressed in S. cerevisiae INVSc1 with Lotus japonicus CPR and beta-amyrin synthase OSC1
T15 sequence (H1A982 entry or part of it V149L/V398L): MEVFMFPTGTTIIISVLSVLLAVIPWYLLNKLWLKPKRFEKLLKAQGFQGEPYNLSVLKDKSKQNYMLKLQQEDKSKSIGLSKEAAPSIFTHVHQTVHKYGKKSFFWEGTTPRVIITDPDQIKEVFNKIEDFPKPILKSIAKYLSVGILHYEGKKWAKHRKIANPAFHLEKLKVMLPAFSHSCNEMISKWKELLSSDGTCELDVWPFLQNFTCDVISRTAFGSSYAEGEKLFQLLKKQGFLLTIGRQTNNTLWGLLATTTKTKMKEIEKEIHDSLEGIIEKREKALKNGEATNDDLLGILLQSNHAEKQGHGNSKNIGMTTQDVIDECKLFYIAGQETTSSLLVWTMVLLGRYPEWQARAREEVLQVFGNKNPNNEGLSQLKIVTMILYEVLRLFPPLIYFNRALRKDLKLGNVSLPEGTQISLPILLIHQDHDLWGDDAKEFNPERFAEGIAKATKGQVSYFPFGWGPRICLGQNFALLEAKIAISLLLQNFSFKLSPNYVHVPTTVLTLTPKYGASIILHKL

SMILES: CC1(C)CC[C@]2(C)CC[C@]3(C)C(=CC[C@@H]4[C@@]5(C)CC[C@H](O)C(C)(C)[C@@H]5CC[C@]43C)[C@@H]2C1 [β-amyrin]
- in vivo yeast assay, GC-MS of products [1]: CYP72A559 and CYP72A560 showed oxidation activity against β-amyrin at the D or E ring
- in vivo yeast assay, GC-MS of products [2]: regioselectivity in the C-29 position was common among them
- in vivo yeast assay, GC-MS of products [3]: CYP72A559 and CYP72A560 showed oxidation activity against β-amyrin at the D or E ring
- in vivo yeast assay, GC-MS of products [4]: in vivo enzymatic assays showed that they have regioselectivity in the C-29 position
- in vivo yeast assay, GC-MS of products [5]: CYP72A63 showed oxidation activity against β-amyrin at the C-30 position
- in vivo yeast assay, GC-MS of products [6]: GuCYP72A154 and GgCYP72A154 oxidized β-amyrin with less regioselectivity at the D or E ring
- in vivo yeast assay, GC-MS of products [7]: in vivo enzymatic assays showed that they have regioselectivity in the C-29 position
- in vivo yeast assay, GC-MS of products [8]: in vivo enzymatic assays showed that they have regioselectivity in the C-29 position
- in vivo yeast assay, GC-MS of products [9]: CYP72A63^L149V/L398V and CYP72A63^L149V/L398I had altered product regioselectivity resembling their counterparts
- in vivo yeast assay, GC-MS of products [10]: showed oxidation activity against β-amyrin at position C-22β, producing sophoradiol
- in vivo yeast assay, GC-MS of products [11]: β-Amyrin C-22β oxidation activity was also detected in CYP72A66v2 (subgroup III)
- in vivo yeast assay, GC-MS of products [12]: regioselectivity in the C-29 position was common among them
- in vivo yeast assay, GC-MS of products [13]: the non-glycyrrhizin-producing species GpCYP72A154 oxidized β-amyrin
- in vivo yeast assay, GC-MS of products [14]: GuCYP72A154 and GgCYP72A154 oxidized β-amyrin with less regioselectivity at the D or E ring
- in vivo yeast assay, GC-MS of products [15]: CYP72A62v2^V149L/V398L produced only C-30 oxidized products, 30-hydroxy-β-amyrin and 11-deoxoglycyrrhetinic acid
